Test results: patent US9574182B2, “Monoterpene glycosyltransferase originating from hop and method for using same” (SUNTORY HOLDINGS LIMITED, priority 2012, dated 2017)

B1: HlUGT251: Humulus lupulus monoterpene glycosyltransferase, amino acid sequence SEQ ID NO: 8, expressed as HisTag fusion in E. coli (protein, listed as Humulus lupulus)
chain: MGSISEMMKPHAVCVPFPAQGHVNPMMQLAKLLHSRGFHITYVNTEFNHRRLIRSRGPDSVKGLPDFQFETIPDGLPPSDRDATQEVPPLCDATRKNCLGPFKELLHKLRSCSEVPPVTCIITDGIMTFGIKAAREFGIPEVVFWTASACSFMGYLQYDELVRRGIVPFKDESFMLDGTLDTPIDWIPGIRDVRLRDLPSFLRVTSTDDIMFDFLGSQAKNCLTSSAIIFNTFRELELEVLDSISDMYPNIYTIGPLPMLNRHLPAESQVKSMSTSLWKEDSTCFQWLHKREPNSVVYVNYGSITTMTEDNFREFAWGLANSKHSFVWIVRPDVIMGSNSATVLPEEFFEEIKDRGLLANWCQQKEVLEHSSVGVFLTHCGWNSTVETVCAGVPVICWPFFADQQTNCHFACKTLGIGVEISPDVKREEVTGLVKEMMEGEKGEKMREKASYWKKKAAETTDIGGDSYHDFDKLIKSLGFDGRD
modifications: His tag

Columns and labels:
Assay type in all cases: biochemical, Humulus lupulus
HlUGT251 = test: Monoterpene glycosylation by recombinant HlUGT251 (UDP-glucose, LC-MS); conditions: for monoglycosylation activity of HlUGT251 on the monoterpene: 2 mM UDP-glucose, 0.2 mM sugar acceptor substrate, pH 7.5, 30° C., 1 hour, LC-MS
Description: (§1) Next, these proteins were used to test their reactivity with monoterpenes by LC-MS analysis. Standard enzyme reaction conditions are as follows. A reaction solution (2 mM UDP-glucose, 0.2 mM sugar acceptor substrate, 100 mM potassium phosphate buffer (pH 7.5), 25 μl purified […] enzyme solution) was prepared in a volume of 50 μl with distilled water and reacted at 30° C. for 1 hour. The enzyme reaction solution (5 μl) was analyzed by LC-MS under the following conditions. LC Conditions Column: CAPCELL PAK C18-UG120 (2.0 mm I.D.×150 mm) Mobile phase: A: water (containing 0.05% formic acid), B: acetonitrile Gradient: linear concentration gradient of B from 15% to 90% over 15 minutes Flow rate: 0.2 ml per minute Column oven: 40° C. MS Conditions ESI (negative mode) SIM mode: (m/z 315, 338, 361, 363, 331, 354, 377, 429, etc.) The above LC-MS analysis was conducted for each of HlUGT119, HlUGT127, HlUGT279 and HlUGT251.

HlUGT279 = test: Monoterpene glycosylation by recombinant HlUGT279 (UDP-glucose, LC-MS); conditions: 2 mM UDP-glucose, 0.2 mM sugar acceptor substrate, pH 7.5, 30° C., 1 hour
Description: as §1

HlUGT127 = test: Monoterpene glycosylation by recombinant HlUGT127 (UDP-glucose, LC-MS); conditions: 2 mM UDP-glucose, 0.2 mM sugar acceptor substrate, pH 7.5, 30° C., 1 hour
Description: as §1

HlUGT119 = test: Monoterpene glycosylation by recombinant HlUGT119 (UDP-glucose, LC-MS); conditions: 2 mM UDP-glucose, 0.2 mM sugar acceptor substrate, pH 7.5, 30° C., 1 hour
Description: as §1

Molecule | monoglycosylation activity of HlUGT251 on the monoterpene (HlUGT251) | monoglycosylation activity of HlUGT279 on the monoterpene (HlUGT279) | monoglycosylation activity of HlUGT127 on the monoterpene (HlUGT127) | monoglycosylation activity of HlUGT119 on the monoterpene (HlUGT119) | amount of product compared with the other three enzymes (HlUGT251; same reaction conditions, ascribed to extremely lower amount of expressed protein)
CC(C)=CCC/C(C)=C/CO [geraniol, Geraniol] | monoglycosylation activity | monoglycosylation activity | monoglycosylation activity | monoglycosylation activity | –
C=CC(C)(O)CCC=C(C)C (stereo not drawn) [linalool, Linalool] | monoglycosylation activity | monoglycosylation activity | monoglycosylation activity | monoglycosylation activity | –
B1 | – | – | – | – | smaller amount of product
